Tests used:
Format in all cases: in vivo
[1] = test system: redroot pigweed (Amaranthus retroflexus, AMARE); test: Pre-emerge test, greenhouse herbicide activity screening; settings: rating scale 0-100, 14 days after application
In short: (§1)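 Compounds in acetone were track-sprayed at 187 l/ha, 15–1000 g ai/ha, onto sandy loam pots. Pre-emerge seeds were sown one day before spraying, with surface watering afterwards. Post-emerge plants were at the 2–3 leaf stage and sprayed with 0.25% v/v non-ionic surfactant. Injury was rated 0–100 at 14 days.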

[2] = test system: sicklepod (Cassia obtusifolia, CASOB); test: Post-emerge test, greenhouse herbicide activity screening; settings: rating scale 0-100 (0 no damage, 100 complete death), 14 days after application
In short: (§2)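 Applied at 15–1000 g ai/ha from acetone in 187 l/ha spray volume. Post-emergence applications included 0.25% v/v non-ionic surfactant and reached plants sown 8–21 days before. Pre-emergence applications were incorporated by surface watering. Efficacy or crop damage was rated on a 0–100 scale after 14 days.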

[3] = test system: redroot pigweed (Amaranthus retroflexus, AMARE); test: as above; settings: rating scale 0-100 (0 no damage, 100 complete death), 14 days after application
In short: as §2

[4] = test system: large crabgrass (Digitaria sanguinalis, DIGSA); test: as above; settings: rating scale 0-100 (0 no damage, 100 complete death), 14 days after application
In short: as §2

[5] = test system: lambsquarters (Chenopodium album, CHEAL); test: as above; settings: rating scale 0-100 (0 no damage, 100 complete death), 14 days after application
In short: as §2

[6] = test system: johnsongrass (Sorghum halepense, SORHA); test: as above; settings: rating scale 0-100 (0 no damage, 100 complete death), 14 days after application
In short: as §2

[7] = test system: velvetleaf (Abutilon theophrasti, ABUTH); test: as above; settings: rating scale 0-100 (0 no damage, 100 complete death), 14 days after application
In short: as §2

[8] = test system: barnyardgrass (Echinochloa crus-galli, ECHCG); test: as above; settings: rating scale 0-100 (0 no damage, 100 complete death), 14 days after application
In short: as §2

[9] = test system: ivyleaf morningglory (Ipomoea hederacea, IPOHE); test: as above; settings: rating scale 0-100 (0 no damage, 100 complete death), 14 days after application
In short: as §2

[10] = test system: green foxtail (Setaria viridis, SETVI); test: as above; settings: rating scale 0-100 (0 no damage, 100 complete death), 14 days after application
In short: as §2

[11] = test system: field corn (Zea mays L., var. Dekalb 535, CORN); test: Pre-emerge test, crop safety; settings: rating scale 0-100, 14 days after application
In short: as §1

[12] = test system: upland rice (Oryza sp., var. Tebonnet, RICE); test: Pre-emerge test, crop safety; settings: rating scale 0-100, 14 days after application
In short: as §1

[13] = test system: sicklepod (Cassia obtusifolia, CASOB); test: Pre-emerge test, greenhouse herbicide activity screening; settings: rating scale 0-100, 14 days after application
In short: (§3)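 Sandy loam pots; pre-emerge: sown 1 d pre-spray, surface-watered after, then bottom-watered. Post-emerge: sown 8–21 d before, 2–3 leaf stage, + 0.25% v/v NIS, bottom-watered. Acetone, 187 l/ha track spray, 15–1000 g ai/ha. 0–100 injury score, day 14.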

[14] = test system: large crabgrass (Digitaria sanguinalis, DIGSA); test: as above; settings: rating scale 0-100, 14 days after application
In short: as §3

[15] = test system: lambsquarters (Chenopodium album, CHEAL); test: as above; settings: rating scale 0-100, 14 days after application
In short: as §3

[16] = test system: johnsongrass (Sorghum halepense, SORHA); test: as above; settings: rating scale 0-100, 14 days after application
In short: as §3

[17] = test system: velvetleaf (Abutilon theophrasti, ABUTH); test: as above; settings: rating scale 0-100, 14 days after application
In short: as §3

[18] = test system: barnyardgrass (Echinochloa crus-galli, ECHCG); test: as above; settings: rating scale 0-100, 14 days after application
In short: as §3

[19] = test system: ivyleaf morningglory (Ipomoea hederacea, IPOHE); test: as above; settings: rating scale 0-100, 14 days after application
In short: as §3

[20] = test system: green foxtail (Setaria viridis, SETVI); test: as above; settings: rating scale 0-100, 14 days after application
In short: as §3

[21] = test system: field corn (Zea mays L., var. Dekalb 535, CORN); test: Post-emerge test, crop safety; settings: rating scale 0-100 (0 no damage, 100 complete death), 14 days after application
In short: as §3

[22] = test system: upland rice (Oryza sp., var. Tebonnet, RICE); test: Post-emerge test, crop safety; settings: rating scale 0-100 (0 no damage, 100 complete death), 14 days after application
In short: as §3

## COc1c(Cl)cc(F)c(-n2c(=O)cc(C(F)(F)F)n(C)c2=O)c1CC(Cl)C(=O)OCC(Br)CBr (single isomer, unassigned) [14-30]
[1]; 63 g ai/ha
  Pre-emerge herbicidal activity, phytotoxicity rating AMARE: 70
[1]; 250 g ai/ha
  Pre-emerge herbicidal activity, phytotoxicity rating AMARE: 100
[2]; Rate 63 g ai/ha
  Post-emerge Herbicidal Activity, phytotoxicity rating CASOB: 20
[2]; Rate 250 g ai/ha
  Post-emerge Herbicidal Activity, phytotoxicity rating CASOB: 60
[3]; Rate 63 g ai/ha
  Post-emerge Herbicidal Activity, phytotoxicity rating AMARE: 70
[3]; Rate 250 g ai/ha
  Post-emerge Herbicidal Activity, phytotoxicity rating AMARE: 100
[4]; Rate 63 g ai/ha
  Post-emerge Herbicidal Activity, phytotoxicity rating DIGSA: 60
[4]; Rate 250 g ai/ha
  Post-emerge Herbicidal Activity, phytotoxicity rating DIGSA: 100
[5]; Rate 63 g ai/ha
  Post-emerge Herbicidal Activity, phytotoxicity rating CHEAL: 50
[5]; Rate 250 g ai/ha
  Post-emerge Herbicidal Activity, phytotoxicity rating CHEAL: 100
[6]; Rate 63 g ai/ha
  Post-emerge Herbicidal Activity, phytotoxicity rating SORHA: 0
[6]; Rate 250 g ai/ha
  Post-emerge Herbicidal Activity, phytotoxicity rating SORHA: 50
[7]; Rate 63 g ai/ha
  Post-emerge Herbicidal Activity, phytotoxicity rating ABUTH: 60
[7]; Rate 250 g ai/ha
  Post-emerge Herbicidal Activity, phytotoxicity rating ABUTH: 100
[8]; Rate 63 g ai/ha
  Post-emerge Herbicidal Activity, phytotoxicity rating ECHCG: 100
[8]; Rate 250 g ai/ha
  Post-emerge Herbicidal Activity, phytotoxicity rating ECHCG: 100
[9]; Rate 63 g ai/ha
  Post-emerge Herbicidal Activity, phytotoxicity rating IPOHE: 0
[9]; Rate 250 g ai/ha
  Post-emerge Herbicidal Activity, phytotoxicity rating IPOHE: 50
[10]; Rate 63 g ai/ha
  Post-emerge Herbicidal Activity, phytotoxicity rating SETVI: 0
[10]; Rate 250 g ai/ha
  Post-emerge Herbicidal Activity, phytotoxicity rating SETVI: 30
[11]; 63 g ai/ha
  Pre-emerge phytotoxicity rating, crop damage CORN: 0
[11]; 250 g ai/ha
  Pre-emerge phytotoxicity rating, crop damage CORN: 0
[12]; 63 g ai/ha
  Pre-emerge phytotoxicity rating, crop damage RICE: 0
[12]; 250 g ai/ha
  Pre-emerge phytotoxicity rating, crop damage RICE: 0
[13]; 63 g ai/ha
  Pre-emerge herbicidal activity, phytotoxicity rating CASOB: 0
[13]; 250 g ai/ha
  Pre-emerge herbicidal activity, phytotoxicity rating CASOB: 0
[14]; 63 g ai/ha
  Pre-emerge herbicidal activity, phytotoxicity rating DIGSA: 0
[14]; 250 g ai/ha
  Pre-emerge herbicidal activity, phytotoxicity rating DIGSA: 90
[15]; 63 g ai/ha
  Pre-emerge herbicidal activity, phytotoxicity rating CHEAL: 0
[15]; 250 g ai/ha
  Pre-emerge herbicidal activity, phytotoxicity rating CHEAL: 80
[16]; 63 g ai/ha
  Pre-emerge herbicidal activity, phytotoxicity rating SORHA: 0
[16]; 250 g ai/ha
  Pre-emerge herbicidal activity, phytotoxicity rating SORHA: 0
[17]; 63 g ai/ha
  Pre-emerge herbicidal activity, phytotoxicity rating ABUTH: 0
[17]; 250 g ai/ha
  Pre-emerge herbicidal activity, phytotoxicity rating ABUTH: 50
[18]; 63 g ai/ha
  Pre-emerge herbicidal activity, phytotoxicity rating ECHCG: 0
[18]; 250 g ai/ha
  Pre-emerge herbicidal activity, phytotoxicity rating ECHCG: 0
[19]; 63 g ai/ha
  Pre-emerge herbicidal activity, phytotoxicity rating IPOHE: 0
[19]; 250 g ai/ha
  Pre-emerge herbicidal activity, phytotoxicity rating IPOHE: 0
[20]; 63 g ai/ha
  Pre-emerge herbicidal activity, phytotoxicity rating SETVI: 0
[20]; 250 g ai/ha
  Pre-emerge herbicidal activity, phytotoxicity rating SETVI: 0
[21]; Rate 63 g ai/ha
  Post-emerge phytotoxicity rating CORN (crop damage): 10
[21]; Rate 250 g ai/ha
  Post-emerge phytotoxicity rating CORN (crop damage): 20
[22]; Rate 63 g ai/ha
  Post-emerge phytotoxicity rating RICE (crop damage): 0
[22]; Rate 250 g ai/ha
  Post-emerge phytotoxicity rating RICE (crop damage): 0
